{
  "source": "patent US10772882B2",
  "about": "“Pulmonary hypertension preventative or therapeutic agent containing crude drug” (TOHOKU UNIVERSITY, priority 2016, dated 2020)",
  "key": {"[1]": {"system": "transcription factor NF-κB", "conditions": "Non-patent Literature 4 and 5; cited from earlier work"}, "[2]": {"system": "pulmonary artery smooth muscle cells", "conditions": "Non-patent Literature 5; cited from earlier work"}, "[3]": {"system": "pulmonary artery smooth muscles derived from patients with pulmonary arterial hypertension", "test": "MTT assay of cell proliferation of pulmonary artery smooth muscle cells from patients", "type": "cell-based, human", "conditions": "for suppressive effect on proliferation of pulmonary artery smooth muscle cells: final concentration 5 μM, same method as Example 1, data not shown", "text": "The preventive or therapeutic agent for pulmonary hypertension of the present invention prevents or treats and ameliorates pulmonary hypertension by at least suppressing excessive proliferation of pulmonary artery smooth muscle cells. Accordingly, the present invention also provides a suppressor for excessive proliferation of pulmonary artery smooth muscle cells containing emetine or a salt thereof. […] However, emetine serving as the active ingredient of the present invention is a compound quite different in structure from IMD-0354 described above. Further, the inventors of the present invention examined N-p-tosyl-L-phenylalanine chloromethyl ketone, caffeic acid phenethyl ester, and Nα-p-tosyl-L-lysine chloromethyl ketone hydrochloride serving as compounds known to have NF-κB-inhibiting actions for their suppressive effects on the proliferation of pulmonary artery smooth muscle cells derived from patients with pulmonary hypertension by the same method as that described in Example 1 to be described later except that each of these compounds was added so that its final concentration was 5 μM. […] Also from such viewpoints, the suppressive effect of emetine on excessive proliferation of pulmonary artery smooth muscle cells and the preventive or therapeutic effect of emetine on pulmonary hypertension in the present invention are unpredictable from the related art. The active ingredient, dosage form, dose, and the like of the suppressor for excessive proliferation of pulmonary artery smooth muscle cells are the same as those of the preventive or therapeutic agent for pulmonary hypertension.\nPulmonary artery smooth muscles derived from patients with pulmonary arterial hypertension were treated with 1 nmol/L to 5 μmol/L emetine solutions (the emetine solutions were prepared with distilled water), and were cultured for 0 hours and 48 hours, followed by an MTT assay to assess cell proliferation rates. Specifically, smooth muscle cells were seeded in 96-well plates at 5,000 cells/well, and 24 hours after the seeding, emetine was added so that its final concentrations were adjusted to from 1 nmol/L to 5 μmol/L. The results are shown in FIG. 1."}, "[4]": {"system": "monocrotaline-induced pulmonary hypertension model", "test": "monocrotaline-induced pulmonary hypertension model", "type": "in vivo, rats (SD rats)", "conditions": "0.01 mg/kg or 0.05 mg/kg orally daily for 3 weeks after 60 mg/kg monocrotaline s.c.; vs control group; FIG. 2", "procedure": "In vivo tests using pulmonary hypertension animal models were performed on emetine. Specifically, first, the influence of emetine on a monocrotaline-induced pulmonary hypertension model was investigated. A monocrotaline solution used for the production of the pulmonary hypertension model was prepared by dissolving monocrotaline with 1 mol/L hydrochloric acid and then adjusting the pH to 7.4 through titration with 1 mol/L sodium hydroxide using a pH meter. An emetine solution was prepared with distilled water. The monocrotaline-induced pulmonary hypertension model was produced by subcutaneously injecting 6-week-old rats (SD rats, n=13) with 60 mg/kg monocrotaline. After the subcutaneous injection with monocrotaline, the rats were orally administered 0.01 mg/kg or 0.05 mg/kg emetine daily for 3 weeks. A vehicle group was sacrificed 3 weeks after the administration of distilled water to measure right ventricular systolic pressure with Mikro-Tip Catheter transducers 2F (Millar). In addition, after formalin fixation, the right ventricle was removed from the left ventricle to measure a right ventricle/(left ventricle plus septum) weight ratio. Then, the extent of pulmonary hypertension was assessed on the basis of those results."}, "SU5416/Hypoxia model": {"system": "SU5416/Hypoxia model", "test": "SU5416/Hypoxia pulmonary hypertension model", "type": "in vivo, rats (SD rats)", "conditions": "0.01 mg/kg or 0.05 mg/kg orally daily, week 8 to week 11 after SU5416; vs control group; FIG. 3", "procedure": "In addition, an in vivo test using an SU5416/Hypoxia model was also performed. Specifically, first, an SU5416 (semaxanib) solution used for the production of the model was prepared by dissolving SU5416 using carboxy methyl cellulose (CMC). An emetine solution was prepared in the same manner as described above.\nSix-week-old rats (SD rats, n=9) were administered 20 mg/kg SU5416 and then bred in a hypoxic chamber using a hypoxicator to be exposed to hypoxia (oxygen concentration: from 8% to 12%) for 3 weeks and then to normoxia. Then, the rats were orally administered 0.01 mg/kg or 0.05 mg/kg emetine daily for a period from the first day of week 8 after the SU5416 administration to the final day of week 11, and were sacrificed on the final day of week 11. Then, the extent of pulmonary hypertension was assessed in the same manner as in the monocrotaline-induced pulmonary hypertension model."}},
  "data": [
    {"compound": "O=C(Nc1cc(C(F)(F)F)cc(C(F)(F)F)c1)c1cc(Cl)ccc1O", "note": "[IMD-0354, N-[3,5-bis(trifluoromethyl)phenyl]-5-chloro-2-hydroxybenzamide]", "values": [
      {"measurement": "NF-κB inhibition", "setting": "[1]", "value": "has an NF-κB-inhibiting action"},
      {"measurement": "proliferation of pulmonary artery smooth muscle cells", "setting": "[2]", "value": "suppresses the proliferation of pulmonary artery smooth muscle cells"}
    ]},
    {"compound": "Cc1ccc(S(=O)(=O)N[C@@H](Cc2ccccc2)C(=O)CCl)cc1", "note": "[N-p-tosyl-L-phenylalanine chloromethyl ketone]", "values": [
      {"measurement": "suppressive effect on proliferation of pulmonary artery smooth muscle cells", "setting": "[3]", "value": "not sufficiently suppressed"}
    ]},
    {"compound": "Cc1ccc(S(=O)(=O)N[C@@H](CCCCN)C(=O)CCl)cc1.Cl", "note": "[Nα-p-tosyl-L-lysine chloromethyl ketone hydrochloride]", "values": [
      {"measurement": "suppressive effect on proliferation of pulmonary artery smooth muscle cells", "setting": "[3]", "value": "not sufficiently suppressed"}
    ]},
    {"compound": "O=C(/C=C/c1ccc(O)c(O)c1)OCCc1ccccc1", "note": "[caffeic acid phenethyl ester]", "values": [
      {"measurement": "suppressive effect on proliferation of pulmonary artery smooth muscle cells", "setting": "[3]", "value": "not sufficiently suppressed"}
    ]},
    {"compound": "CC[C@H]1CN2CCc3cc(OC)c(OC)cc3[C@@H]2C[C@@H]1C[C@H]1NCCc2cc(OC)c(OC)cc21", "note": "[emetine]", "values": [
      {"measurement": "right ventricle/(left ventricle plus septum) weight ratio", "setting": "[4]", "value": "suppressed"},
      {"measurement": "right ventricular systolic pressure", "setting": "[4]", "value": "suppressed"},
      {"measurement": "NF-κB inhibition", "setting": "[1]", "value": "known to inhibit a transcription factor NF-κB"},
      {"measurement": "cell proliferation rate (MTT assay)", "setting": "[3]; emetine 1 nmol/L to 5 μmol/L, cultured 48 hours, FIG. 1", "value": "suppressed proliferation of the pulmonary artery smooth muscles derived from patients with pulmonary arterial hypertension in a concentration-dependent manner"},
      {"measurement": "right ventricle/(left ventricle plus septum) weight ratio", "setting": "SU5416/Hypoxia model", "value": "alleviated"},
      {"measurement": "right ventricular systolic pressure", "setting": "SU5416/Hypoxia model", "value": "alleviated"}
    ]}
  ]
}
